Measured values reported in BindingDB's records for PubMed 37336067 (State University of Paraiba).

Target: Glycylpeptide N-tetradecanoyltransferase 1 (Homo sapiens) (UniProt P30419)
Experiment: Inhibition of recombinant N-terminal his-6 tagged human NMT expressed in Escherichia coli BL21 (DE3)pLysS using peptide substrate preincubated for 5 mins followed by substrate addition and measured after 30 mins by scintillation proximity assay

Sequence of Glycylpeptide N-tetradecanoyltransferase 1 (Homo sapiens) (P30419 whole entry, looked up): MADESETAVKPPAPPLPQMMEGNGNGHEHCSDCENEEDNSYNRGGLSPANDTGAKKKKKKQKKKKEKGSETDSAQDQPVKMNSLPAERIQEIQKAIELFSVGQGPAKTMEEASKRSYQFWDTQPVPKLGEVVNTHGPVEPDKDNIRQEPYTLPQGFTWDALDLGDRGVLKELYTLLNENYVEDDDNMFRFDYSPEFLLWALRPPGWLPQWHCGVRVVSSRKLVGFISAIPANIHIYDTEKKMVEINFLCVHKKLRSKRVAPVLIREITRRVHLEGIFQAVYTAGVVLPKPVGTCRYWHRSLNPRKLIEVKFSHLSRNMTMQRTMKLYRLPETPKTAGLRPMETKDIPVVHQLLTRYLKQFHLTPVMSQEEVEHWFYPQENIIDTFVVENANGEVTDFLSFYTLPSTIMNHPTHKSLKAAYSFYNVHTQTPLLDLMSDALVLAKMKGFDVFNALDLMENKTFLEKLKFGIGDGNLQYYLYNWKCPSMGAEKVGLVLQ

| IC50 | SMILES |
| --- | --- |
| 656 µM | O=C(Nc1nc2cc(F)ccc2s1)[C@H]1CC[C@@H](NCc2ccc3ccccc3c2)CC1 |
| 656 µM | CN(C)C(=O)c1ccc2nc(NC(=O)[C@@H]3CCC[C@H](NCc4ccc5ccoc5c4)C3)sc2c1 |
| 286 µM | O=C(Nc1nc2ccccc2s1)[C@H]1CC[C@@H](NCc2ccc3ccccc3c2)CC1 |
